# Data: US20230135093A1, “TRIAZOLYL DERIVATIVES AS GABA A ALPHA5 PAM” (Hoffmann-La Roche Inc., priority 2020, published 2023)
# Key:
# h-GABA-A α5β3γ2 [1] = biological target: T1, h-GABA-A α5β3γ2 (Homo sapiens, UniProt P18507+P31644); test: [3H]flumazenil competition binding assay on membranes of HEK293 cells expressing GABAA receptors; details: Table 1; displacement of [3H]-Flumazenil (0.5 nM), HEK293 cells expressing human receptors, means of two determinations
# T1 construct: expressed in transfected cells; host or cells: Xenopus laevis oocytes, micro-injected with subunit RNA
# Outline: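 Competition for [3H]flumazenil (0.5 nM for α5 subunits) was measured at equilibrium (1 h, 4 °C, Krebs-tris buffer pH 7.5) on transiently transfected HEK293 membranes bearing human α5β3γ2 receptors, with 10^−5 M diazepam defining nonspecific binding. Ki values were derived from filtration and scintillation counting, averaged over duplicates.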
# h-GABA-A α5β3γ2 [2] = biological target: T1, h-GABA-A α5β3γ2; test: Two-electrode voltage clamp electrophysiology in Xenopus oocytes expressing GABAA receptors (modulation of GABA EC20 current); assay type: cell-based; details: Table 1; for Efficacy (GABA) %: % modulation of GABA EC20 = 100*(Fold increase-1); for Fold increase h-GABA-A α5β3γ2 oocyte: Xenopus oocytes, GABA EC20, test compound at approximatively 30 fold its Ki
# Outline: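 GABA EC20 currents in human α5β3γ2-expressing Xenopus oocytes, voltage-clamped at −80 mV (room temperature, pH 7.4), measured with and without compound at ~30× Ki applied 0.5 min into the second GABA pulse. % modulation = 100×(fold increase−1), taken from the extremum of the current ratio trace; at least 3 oocytes per concentration.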
Structure (SMILES),Ki (h-GABA-A α5β3γ2 [1]) [nM],Efficacy (GABA) % (h-GABA-A α5β3γ2 [2]) [%],Fold increase h-GABA-A α5β3γ2 oocyte (h-GABA-A α5β3γ2 [2])
"CCOC1CN(c2cnn(Cc3c(-c4ccc(C(F)(F)F)cc4F)nnn3C)c(=O)c2)C1 [Example 72, 5-(3-ethoxyazetidin-1-yl)-2-[[5-[2-fluoro-4-(trifluoromethyl)phenyl]-3-methyl-triazol-4-yl]methyl]pyridazin-3-one]",19.4,70,1.7
"Cn1nnc(-c2ccc(Cl)cc2F)c1Cn1ncc(N2CC(Oc3cnccn3)C2)cc1=O [Example 73, 2-[[5-(4-chloro-2-fluoro-phenyl)-3-methyl-triazol-4-yl]methyl]-5-(3-pyrazin-2-yloxyazetidin-1-yl)pyridazin-3-one]",7.7,90,1.9
"Cn1nnc(-c2ccc(C(F)(F)F)cc2F)c1Cn1ncc(N2CC(OCC(F)(F)F)C2)cc1=O [Example 74, 2-[[5-[2-fluoro-4-(trifluoromethyl)phenyl]-3-methyl-triazol-4-yl]methyl]-5-[3-(2,2,2-trifluoro-ethoxy)azetidin-1-yl]pyridazin-3-one]",11.8,86,1.86
"Cn1nnc(-c2ccc(C(F)(F)F)cc2F)c1Cn1ncc(N2CC3(CCCO3)C2)cc1=O [Example 75, 2-[[5-[2-fluoro-4-(trifluoromethyl)phenyl]-3-methyl-triazol-4-yl]methyl]-5-(5-oxa-2-azaspiro[3.4]octan-2-yl)pyridazin-3-one]",23,73,1.73
"Cn1nnc(-c2ccc(C(F)(F)F)cc2F)c1Cn1ncc(N2CC(OCC(F)F)C2)cc1=O [Example 76, 5-[3-(2,2-difluoroethoxy)azetidin-1-yl]-2-[[5-[2-fluoro-4-(trifluoromethyl)phenyl]-3-methyl-triazol-4-yl]methyl]pyridazin-3-one]",11.6,115,2.15
"Cn1nnc(-c2ccc(C(F)(F)F)cc2F)c1Cn1ncc(N2CC(OC3CCC3)C2)cc1=O [Example 77, 5-[3-(cyclo-butoxy)azetidin-1-yl]-2-[[5-[2-fluoro-4-(trifluoro-methyl)phenyl]-3-methyl-triazol-4-yl]methyl]pyridazin-3-one]",18.4,66,1.66
"Cn1nnc(-c2ccc(Cl)cc2F)c1Cn1ncc(N2CC(Oc3ccncn3)C2)cc1=O [Example 78, 2-[[5-(4-chloro-2-fluoro-phenyl)-3-methyl-triazol-4-yl]methyl]-5-(3-pyrimidin-4-yloxyazetidin-1-yl)pyridazin-3-one]",11.2,106,2.06
"Cn1nnc(-c2ccc(Cl)cc2F)c1Cn1ncc(N2CC(Oc3cccnn3)C2)cc1=O [Example 79, 2-((5-(4-chloro-2-fluoro-phenyl)-3-methyl-triazol-4-yl)methyl)-5-(3-pyridazin-3-yloxyazetidin-1-yl)pyridazin-3-one]",11,88,1.88
"Cn1nnc(-c2ccc(Cl)cc2F)c1Cn1ncc(N2CC(Oc3ccc(Cl)cn3)C2)cc1=O [Example 80, 2-[[5-(4-chloro-2-fluoro-phenyl)-3-methyl-triazol-4-yl]methyl]-5-[3-[(5-chloro-2-pyridyl)oxy]azetidin-1-yl]pyridazin-3-one]",16.8,72,1.72
"COc1cc(-c2cnn(Cc3c(-c4ccc(C)nc4)nnn3C)c(=O)c2)ccn1 [Example 81, 5-(2-methoxy-4-pyridyl)-2-((3-methyl-5-(6-methyl-3-pyridyl)triazol-4-yl)methyl)pyridazin-3-one]",19.9,110,2.1
"COc1ncc(-c2cnn(Cc3c(-c4ccc(C)nc4)nnn3C)c(=O)c2)cc1Cl [Example 82, 5-(5-chloro-6-methoxy-3-pyridyl)-2-((3-methyl-5-(6-methyl-3-pyridyl)triazol-4-yl)methyl)pyridazin-3-one]",31,236,3.36
"Cn1nnc(-c2ccc(C(F)(F)F)cc2F)c1Cn1ncc(N2CC(Oc3cccnn3)C2)cc1=O [Example 83, 2-[[5-[2-fluoro-4-(trifluoromethyl)phenyl]-3-methyl-triazol-4-yl]methyl]-5-(3-pyridazin-3-yloxyazetidin-1-yl)pyridazin-3-one]",14.7,108,2.08
"Cn1nnc(-c2ccc(C(F)(F)F)cc2F)c1Cn1ncc(N2CC(Oc3ccccn3)C2)cc1=O [Example 84, 2-[[5-[2-fluoro-4-(trifluoromethyl)phenyl]-3-methyl-triazol-4-yl]methyl]-5-[3-(2-pyridyloxy)azetidin-1-yl]pyridazin-3-one]",10.2,73,1.73
"CCn1nnc(-c2ccc(Cl)cc2F)c1Cn1ncc(N2CC(OC3CCC3)C2)cc1=O [Example 85, 2-[[5-(4-chloro-2-fluoro-phenyl)-3-ethyl-triazol-4-yl]methyl]-5-[3-(cyclobutoxy)azetidin-1-yl]pyridazin-3-one]",18.5,143,2.43
"CCn1nnc(-c2ccc(Cl)cc2F)c1Cn1ncc(N2CC(OCC(F)F)C2)cc1=O [Example 86, 2-[[5-(4-chloro-2-fluoro-phenyl)-3-ethyl-triazol-4-yl]methyl]-5-[3-(2,2-difluoro-ethoxy)azetidin-1-yl]pyridazin-3-one]",10.8,136,2.36
"CCn1nnc(-c2ccc(Cl)cc2F)c1Cn1ncc(N2CC(OCC(F)(F)F)C2)cc1=O [Example 87, 2-[[5-(4-chloro-2-fluoro-phenyl)-3-ethyl-triazol-4-yl]methyl]-5-[3-(2,2,2-trifluoro-ethoxy)azetidin-1-yl]pyridazin-3-one]",12.5,115,2.15
"CCn1nnc(-c2ccc(Cl)cc2F)c1Cn1ncc(N2CC(OC(F)F)C2)cc1=O [Example 88, 2-[[5-(4-chloro-2-fluoro-phenyl)-3-ethyl-triazol-4-yl]methyl]-5-[3-(difluoromethoxy)azetidin-1-yl]pyridazin-3-one]",7,126,2.26
"Cn1nnc(-c2ccc(C(F)(F)F)cc2F)c1Cn1ncc(N2CC(Oc3cnccn3)C2)cc1=O [Example 89, 2-[[5-[2-fluoro-4-(trifluoromethyl)phenyl]-3-methyl-triazol-4-yl]methyl]-5-(3-pyrazin-2-yloxyazetidin-1-yl)pyridazin-3-one]",9.3,76,1.76
"CCn1nnc(-c2ccc(Cl)cc2F)c1Cn1ncc(N2CC(OC(C)C)C2)cc1=O [Example 90, 2-[[5-(4-chloro-2-fluoro-phenyl)-3-ethyl-triazol-4-yl]methyl]-5-(3-isopropoxyazetidin-1-yl)pyridazin-3-one]",19.4,96,1.96
